# From patent US20060276465A1, “1,2-di(cyclic) substituted benzene compounds” (Eisai R&D Management Co., Ltd., priority 2003, published 2006)
# Tested on: Balb/c mice
# Test: Oxazolone-induced colon neutrophil infiltration model
# Assay type: in vivo
# Details: Mus musculus, po, 4 h, colon myeloperoxidase activity vs oxazolone control group, male Balb/c mice, 30 mg/kg orally 30 minutes before intrarectal oxazolone, colons taken four hours after, read-out: Inhibitory rate (%)
# Method: Evaluation of Compounds in Oxazolone-Induced Colon Neutrophil Infiltration Model
# <Sensitization with Oxazolone>
# Five- to six-week-old male Balb/c mice (Charles River Japan) were shaven at the abdomen to an approximately 2 cm square area. A 100% ethanol solution containing 3% 4-ethoxymethylene-2-phenyl-2-oxazolin-5-one (hereinafter referred to as “oxazolone”; Sigma) was applied at 150 μl onto the abdomen of each mouse.
# <Preparation of Emulsion Containing Oxazolone>
# Distilled water (Otsuka Pharmaceutical) was added in an equivalent volume to 100% peanut oil (Kanto Kagaku) containing 1% oxazolone, and the components were vigorously mixed with a glass syringe (Top Co.), to prepare an emulsion containing 0.5% oxazolone.
# <Induction with Oxazolone> […]
# Each compound was suspended or dissolved in an aqueous solution containing 0.5% methyl cellulose (Wako), and orally administered at 30 mg/kg 30 minutes prior to the intrarectal injection of oxazolone emulsion. […] Specifically, to 10 μl of the obtained supernatant was added 200 μl of 50 mM KPB (pH6.0) containing 0.017% o-dianisidine (Sigma) and 0.0005% hydrogen peroxide (Wako), incubated at 37° C., and the change in absorbance at 450 nm was continuously measured for 1 minute using an EL340 Automated Microplate Reader (BIO-TEK) in kinetic mode. The units were the rate of change in absorbance per minute (mO.D./min.). […]
smiles,measurement,value
"COCCN1CCN(c2ccccc2C2CCC(C(C)(C)C)CC2)CC1.Cl (stereo not shown) [Example 19, 1-[2-(4-t-Butylcyclohexyl)phenyl]-4-(2-methoxyethyl)piperazine hydrochloride]",inhibition in vivo at 30 mg/kg,53%
